Test results reported in ChEMBL document CHEMBL4266045, “Understanding Molecular Drivers of Melanin Binding To Support Rational Design of Small Molecule Ophthalmic Drugs” (J Med Chem, 2018).

How the values were obtained:
[1] = Lipophilicity, log D of compound; settings: octanol/water
Sepia officinalis = experiment: Binding affinity to Sepia officinalis melanin assessed as fraction unbound at 2 uM after 2 hrs by high-throughput screening assay

SMILES | logD [1] | Fu (Sepia officinalis) [%]
c1ccc2c(c1)oc1c(Nc3ccncc3)ncnc12 | 2.98 | 0.1
CCCCN1CCC(CCC(=O)c2cc(Cl)c(N)cc2OC)CC1 | 1.91 | 0.8
Cc1ccccc1Nc1ncnc2c1oc1ccccc12 | 3.77 | 34
COc1cc(N)c(Cl)cc1C(=O)CCC1CCNCC1 | 0.01 | 34

Further lines, results first:

logD [1] | Fu (Sepia officinalis) [%] | SMILES
2.04 | 0.2 | CN(C)c1nc2ccc(Cl)cc2s1
 | 48 | Nc1nc2ccc(OC(F)(F)F)cc2s1
